# Test results reported in patent US9765085B2, “SHIP1 modulators and methods related thereto” (Aquinox Pharmaceuticals (Canada) Inc., priority 2013, dated 2017).
# Target: T1, His-hSHIP1 enzyme (Homo sapiens, UniProt Q92835)
# T1 construct: His
# T1 sequence (Q92835 1-1189): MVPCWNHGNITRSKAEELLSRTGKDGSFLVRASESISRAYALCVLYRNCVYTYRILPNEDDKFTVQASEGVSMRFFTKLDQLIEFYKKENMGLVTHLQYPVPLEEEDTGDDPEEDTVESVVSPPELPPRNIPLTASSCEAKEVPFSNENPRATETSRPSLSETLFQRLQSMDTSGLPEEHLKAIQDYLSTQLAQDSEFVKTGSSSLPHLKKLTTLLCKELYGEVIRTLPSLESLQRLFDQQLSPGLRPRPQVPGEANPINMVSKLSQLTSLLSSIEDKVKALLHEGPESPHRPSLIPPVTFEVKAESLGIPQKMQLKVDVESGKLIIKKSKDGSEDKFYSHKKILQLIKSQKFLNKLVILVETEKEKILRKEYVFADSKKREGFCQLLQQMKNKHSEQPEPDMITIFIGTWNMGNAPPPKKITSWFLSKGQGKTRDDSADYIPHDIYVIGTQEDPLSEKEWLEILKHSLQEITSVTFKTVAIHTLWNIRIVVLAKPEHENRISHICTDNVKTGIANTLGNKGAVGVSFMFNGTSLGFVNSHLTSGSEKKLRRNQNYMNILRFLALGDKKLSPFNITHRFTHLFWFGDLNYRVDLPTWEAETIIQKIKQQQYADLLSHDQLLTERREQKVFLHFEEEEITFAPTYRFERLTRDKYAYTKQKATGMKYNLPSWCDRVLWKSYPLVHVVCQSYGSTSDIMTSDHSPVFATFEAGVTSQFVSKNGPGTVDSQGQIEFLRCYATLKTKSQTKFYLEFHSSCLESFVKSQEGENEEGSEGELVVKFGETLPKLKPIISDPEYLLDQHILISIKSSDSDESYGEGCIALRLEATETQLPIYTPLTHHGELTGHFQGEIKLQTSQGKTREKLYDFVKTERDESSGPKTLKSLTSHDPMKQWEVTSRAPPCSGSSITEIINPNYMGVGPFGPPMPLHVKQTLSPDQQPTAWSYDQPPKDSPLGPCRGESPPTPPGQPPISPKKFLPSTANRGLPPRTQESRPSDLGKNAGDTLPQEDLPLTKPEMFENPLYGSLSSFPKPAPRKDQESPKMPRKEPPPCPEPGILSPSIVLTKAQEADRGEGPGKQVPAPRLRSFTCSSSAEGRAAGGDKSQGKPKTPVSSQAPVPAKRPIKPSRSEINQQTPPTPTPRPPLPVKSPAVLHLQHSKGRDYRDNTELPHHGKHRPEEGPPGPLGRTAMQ
# Experiment: His-hSHIP1 activity (phosphatase assay, IP4 substrate, Biomol Green)
# Format: biochemical
# Set-up: key: +++: higher than reference or reference - 15%; ++: reference - 16% to reference - 30%; +: reference - 31% or lower; −: inhibitor
# Details: ratio of initial velocities (IP4 25/IP4 250 μM final) compared with a reference SHIP1 activator; 37° C.
# Description: Test compounds are dissolved in 95% ethanol to form stock solutions. Before screening, the stock solutions are diluted with Phosphatase Assay Buffer (20 mM Tris-HCL, 10 mM MgCl2 pH 7.5, 0.02% Tween 20) to form working assay solutions that contain 10% ethanol. The assay is carried out on 96-well microtiter plates using a modified procedure of that reported by Ong et al., Blood 110, 1942-1949, 2007 and Yang et al., Org Lett 7, 1073-1076, 2005, both of which references are incorporated herein by reference in their entirety.
# A master mix is prepared that contains 50 μL of His-hSHIP1 enzyme (0.4-1.6 ng/μL final), 25 μL of the substrate, IP4 (25 or 250 μM final), and 50 μL of test compound in 3.3% ethanol ([…]). Control blanks are also prepared by replacing His-hSHIP1 enzyme, IP4, or test compounds with Phosphate Assay Buffer. […] Each reaction component is preincubated at 37° C. for 30 min before adding to a 96-well microtiter plate. The master mix is then incubated at 37° C. At time 0, 20, 25 and 30 min, 25 μL of the master mix is removed and transferred to a new 96-well microtiter plate, to which 100 μL of Biomol Green Reagent is added to stop the reaction. After incubating the mixture for 20 min at room temperature for color development, the absorbance is read with SpectraMax Plus 96-well plate reader at a wavelength of 650 nm. Phosphate released is plotted against time to calculate the initial velocities (i.e., slope of the graph) at each IP4 concentration. The initial velocities are baseline corrected and the ratio of initial velocities (IP425/IP4250) is calculated and used to rate the test compounds.
# The compound numbers in Table 2 correspond to the compound numbers in Table 1 above. Scoring of the compound is expressed as follows: […]
row,Molecule,Scoring (Initial Velocity Ratio)
1,"C[C@]1([C@H]2CC[C@@]3(C)[C@@H](CC[C@@]3(O)c3ccccn3)[C@@H]2CO)CC[C@H](O)C[C@@H]1CO [compound 36, (1S,3aS,4R,5S,7aS)-5-((1R,2S,4S)-4-hydroxy-2-(hydroxymethyl)-1-methylcyclohexyl)-4-(hydroxymethyl)-7a-methyl-1-(pyridin-2-yl)octahydro-1H-inden-1-ol]",++
2,"CN/C(=N\C#N)NC[C@H]1C2=C(CC[C@@H]1[C@@]1(C)CC[C@H](O)C[C@@H]1CO)C(C)(C)CC2 [compound 3, (E)-2-cyano-1-(((4R,5S)-5-((1R,2S,4S)-4-hydroxy-2-(hydroxymethyl)-1-methylcyclohexyl)-1,1-dimethyl-2,3,4,5,6,7-hexahydro-1H-inden-4-yl)methyl)-3-methylguanidine]",++
3,"C#C[C@]1(O)CC[C@H]2[C@H](CO)[C@@H]([C@@]3(C)CC[C@H](O)C[C@@H]3CO)CC[C@@]21C [compound 28, (1R,3aS,4R,5S,7aS)-1-ethynyl-5-((1R,2S,4S)-4-hydroxy-2-(hydroxymethyl)-1-methylcyclohexyl)-4-(hydroxymethyl)-7a-methyloctahydro-1H-inden-1-ol]",++
4,"C[C@]1([C@H]2CC[C@]3(C)c4[nH]ncc4C[C@H]3[C@@H]2CO)CC[C@H](O)C[C@@H]1CO [compound 33, (1S,3S,4R)-3-(hydroxymethyl)-4-((4aS,5R,6S,8aS)-5-(hydroxymethyl)-8a-methyl-1,4,4a,5,6,7,8,8a-octahydroindeno[1,2-c]pyrazol-6-yl)-4-methylcyclohexanol]",+
5,"C[C@]1([C@H]2CC[C@@]3(C)[C@@H](CC[C@@]3(O)c3ccccn3)[C@@H]2CN)CC[C@H](O)C[C@@H]1CO [compound 17, (1S,3aS,4R,5S,7aS)-4-(aminomethyl)-5-((1R,2S,4S)-4-hydroxy-2-(hydroxymethyl)-1-methylcyclohexyl)-7a-methyl-1-(pyridin-2-yl)octahydro-1H-inden-1-ol]",−
6,"C[C@]1([C@H]2CC[C@@]3(C)[C@@H](CC[C@@]3(O)c3nccs3)[C@@H]2CN)CC[C@H](O)C[C@@H]1CO [compound 20, (1S,3aS,4R,5S,7aS)-4-(aminomethyl)-5-((1R,2S,4S)-4-hydroxy-2-(hydroxymethyl)-1-methylcyclohexyl)-7a-methyl-1-(thiazol-2-yl)octahydro-1H-inden-1-ol]",++
7,"(1S,3S,4R)-4-((2R,3S,3aR,3bS,5′R,6S,7R,7aS,8aS)-7-(aminomethyl)-3,3b,5′-trimethyltetradecahydrospiro[indeno[2,1-b]furan-2,2′-pyran]-6-yl)-3-(hydroxymethyl)-4-methylcyclohexanol acetate [compound 14]",++
8,"C[C@]1([C@H]2CC[C@]3(C)C(c4cccs4)=CC[C@H]3[C@@H]2CN)CC[C@H](O)C[C@@H]1CO [compound 16, (1S,3S,4R)-4-((3aS,6S,7R,7aS)-7-(aminomethyl)-3a-methyl-3-(thiophen-2-yl)-3a,4,5,6,7,7a-hexahydro-1H-inden-6-yl)-3-(hydroxymethyl)-4-methylcyclohexanol]",+
9,"C[C@]1([C@H]2CC[C@]3(C)C(c4ccco4)=CC[C@H]3[C@@H]2CN)CC[C@H](O)C[C@@H]1CO [compound 13, (1S,3S,4R)-4-((3aS,6S,7R,7aS)-7-(aminomethyl)-3-(furan-2-yl)-3a-methyl-3a,4,5,6,7,7a-hexahydro-1H-inden-6-yl)-3-(hydroxymethyl)-4-methylcyclohexanol]",+
10,"CC1(C)CCC2=C1CC[C@H]([C@@]1(C)Cc3cnoc3C[C@@H]1CO)[C@H]2CO [compound 23, ((5R,6S)-5-((4R,5S)-4-(hydroxymethyl)-1,1-dimethyl-2,3,4,5,6,7-hexahydro-1H-inden-5-yl)-5-methyl-4,5,6,7-tetrahydrobenzo[d]isoxazol-6-yl)methanol]",+++
11,"C[C@]1([C@H]2CCC3=C(C[C@@H](O)[C@@]3(C)c3ccccc3)[C@@H]2CN)CC[C@H](O)C[C@@H]1CO [compound 19, (1S,2R,4R,5S)-4-(aminomethyl)-5-((1R,2S,4S)-4-hydroxy-2-(hydroxymethyl)-1-methylcyclohexyl)-1-methyl-1-phenyl-2,3,4,5,6,7-hexahydro-1H-inden-2-ol]",++
12,"CC(=O)O.CC1(C2CCC3(C)C(CCC3(O)c3ccccc3)C2CN)CCC(O)CC1CO [compound 11, (1S,3aS,4R,5S,7aS)-4-(aminomethyl)-5-((1R,2S,4S)-4-hydroxy-2-(hydroxymethyl)-1-methylcyclohexyl)-7a-methyl-1-phenyloctahydro-1H-inden-1-ol acetate]",−
13,"C[C@]1([C@H]2CC[C@@]3(C)[C@@H](CC[C@@]3(O)c3ccco3)[C@@H]2CN)CC[C@H](O)C[C@@H]1CO [compound 12, (1S,3aS,4R,5S,7aS)-4-(aminomethyl)-1-(furan-2-yl)-5-((1R,2S,4S)-4-hydroxy-2-(hydroxymethyl)-1-methylcyclohexyl)-7a-methyloctahydro-1H-inden-1-ol]",+++
14,"C=C1CC[C@H]2[C@H](CO)[C@@H]([C@@]3(C)Cc4sc(C)nc4C[C@@H]3CO)CC[C@]12C [compound 24, ((3aS,4R,5S,7aS)-5-((5S,6R)-5-(hydroxymethyl)-2,6-dimethyl-4,5,6,7-tetrahydrobenzo[d]thiazol-6-yl)-7a-methyl-1-methyleneoctahydro-1H-inden-4-yl)methanol]",++
15,"C[C@]1([C@H]2CC[C@]3(C)c4ncccc4C[C@H]3[C@@H]2CN)CC[C@H](O)C[C@@H]1CO [compound 9, (1S,3S,4R)-4-((5aS,6R,7S,9aS)-6-(aminomethyl)-9a-methyl-5a,6,7,8,9,9a-hexahydro-5H-indeno[1,2-b]pyridin-7-yl)-3-(hydroxymethyl)-4-methylcyclohexanol]",++
16,"C=C1CC[C@H]2[C@H](CO)[C@@H]([C@@]3(C)Cc4conc4C[C@@H]3CO)CC[C@]12C [compound 22, ((3aS,4R,5S,7aS)-5-((5R,6S)-6-(hydroxymethyl)-5-methyl-4,5,6,7-tetrahydrobenzo[c]isoxazol-5-yl)-7a-methyl-1-methyleneoctahydro-1H-inden-4-yl)methanol]",++
17,"C=C1CC[C@H]2[C@H](CO)[C@@H]([C@@]3(C)Cc4cn[nH]c4C[C@@H]3CO)CC[C@]12C [compound 21, ((3aS,4R,5S,7aS)-5-((5R,6S)-6-(hydroxymethyl)-5-methyl-4,5,6,7-tetrahydro-1H-indazol-5-yl)-7a-methyl-1-methyleneoctahydro-1H-inden-4-yl)methanol]",+
